According to ChEMBL document CHEMBL1156411, “New axane and oppositane sesquiterpenes from Teclea nobilis” (J Nat Prod, 2002):
Activity calls are given as the source filed them.

Legend:
Format in all cases: functional, organism-based
Candida albicans = experiment: Antimicrobial activity against Candida albicans
Staphylococcus aureus [1] = experiment: Antimicrobial activity against methicillin-resistant Staphylococcus aureus
Cryptococcus neoformans = experiment: Antimicrobial activity against Cryptococcus neoformans
Plasmodium falciparum [2] = experiment: Antiplasmodial activity against Plasmodium falciparum W2
Staphylococcus aureus [3] = experiment: Antimicrobial activity against Staphylococcus aureus
Plasmodium falciparum [4] = experiment: Antiplasmodial activity against Plasmodium falciparum D6

Measured: Activity

C=C1CC[C@@H](O)[C@]2(C)CC[C@H](C(=O)C(C)C)[C@@H]12
inactive: Candida albicans | Staphylococcus aureus [1] | Cryptococcus neoformans | Plasmodium falciparum [2] | Staphylococcus aureus [3] | Plasmodium falciparum [4]

C=C1CC[C@H](O)[C@@]2(C)CC[C@H](C(=O)C(C)C)[C@@H]12
inactive: Candida albicans | Staphylococcus aureus [1] | Cryptococcus neoformans | Plasmodium falciparum [2] | Staphylococcus aureus [3] | Plasmodium falciparum [4]
